How the values were obtained:
[1] = test system: human subjects/patients with pain following dental surgery; assay: Dental surgery pain study: adverse events
[2] = test system: α2-adrenoreceptors; details: cited from earlier work
[3] = test system: human subjects/patients with pain following dental surgery; assay: Dental surgery pain study: global evaluations; format: in vivo; details: ITT
Description: (§1) For this randomized, double-blind, active-controlled and placebo-controlled, parallel-group study, human subjects were randomized into one of the following five treatment groups:
(§2) A positive control (T, Group 4) was used to determine the sensitivity of the clinical end points. A negative control (placebo, Group 5) was used to establish the frequency and magnitude of changes in clinical end points that may occur in the absence of an active treatment. A single oral dose of study medication was administered when the subject experienced moderate to severe pain following the surgical extraction of three or four third molars. At least one of the molars was required to be mandibular bony impacted.
At the end of eight hours, or at the termination of hourly observations if sooner than eight hours, a global assessment was made by the subject and the observer in response to the question, “How do you rate the pain relief?” with response choices of excellent, very good, good, fair or poor. Assessment of adverse events continued for at least one hour following rescue medication. Subjects not completing at least the Hour 1 observation period were considered not evaluable for efficacy and were replaced.

[4] = test system: human subjects/patients with pain following dental surgery; assay: Dental surgery pain study: time to onset of meaningful pain relief; format: in vivo; details: ITT
Description: as §1, §2
A pain assessment was also performed post-treatment. Following dosing, pain intensity and pain relief was recorded at the following times: 30 minutes, 60 minutes and hourly thereafter up to Hour 8 after dosing. All efficacy assessments were recorded by the subject in a diary in response to questioning by the trained observer. […] Pain intensity was measured in response to the question, “How much pain do you have now?” with (1) subject response choices of none, mild, moderate and severe on a categorical scale, and (2) a mark on a 100-mm VAS. […]
Time to remedication (or rescue medication) was analyzed using the Kaplan-Meier estimate to compute the survival distribution function. […]

[5] = ITT, counted once per subject (Table 15)
[6] = Severity = Moderate, ITT subjects

## COc1cccc([C@@]2(O)CCCC[C@@H]2CN(C)C)c1.Cl (racemic) [tramadol, (1RS,2RS)-2[(dimethylamino)-methyl]-1-(3-methoxyphenyl)-cyclohexanol HCL]
[1]; ITT, Severity = Severe
  Adverse events: Number (%) with Events: 3 (6.0%) n (%)
  Adverse events: Number of Events: 3 events
  Gastrointestinal Disorders, frequency (percentage): 2 (4.0%) n (%)
  Gastrointestinal Disorders, occurrence: 2 events
  Headache Nos, frequency (percentage): 1 (2.0%) n (%)
  Headache Nos, occurrence: 1 events
  Nausea, frequency (percentage): 2 (4.0%) n (%)
  Nausea, occurrence: 2 events
  Nervous System Disorders, frequency (percentage): 1 (2.0%) n (%)
  Nervous System Disorders, occurrence: 1 events
  Vomiting Nos, frequency (percentage): 1 (2.0%) n (%)
  Vomiting Nos, occurrence: 1 events
[1]; ITT, all severities
  Adverse events: Number (%) with Events: 40 (80%) n (%)
  Adverse events: Number of Events: 134 events
  Dizziness (Exc Vertigo), frequency (percentage): 15 (30.0%) n (%)
  Dizziness (Exc Vertigo), occurrence: 19 events
  Gastrointestinal Disorders, frequency (percentage): 20 (40.0%) n (%)
  Gastrointestinal Disorders, occurrence: 40 events
  Headache Nos, frequency (percentage): 28 (56.0%) n (%)
  Headache Nos, occurrence: 38 events
  Nausea, frequency (percentage): 20 (40.0%) n (%)
  Nausea, occurrence: 28 events
  Nervous System Disorders, frequency (percentage): 40 (80.0%) n (%)
  Nervous System Disorders, occurrence: 89 events
  Pruritus Nos, frequency (percentage): 2(4.0%) n (%)
  Pruritus Nos, occurrence: 2 events
  Sedation, frequency (percentage): 28 (56.0%) n (%)
  Sedation, occurrence: 32 events
  Skin & Subcutaneous Tissue Disorders, frequency (percentage): 2 (4.0%) n (%)
  Skin & Subcutaneous Tissue Disorders, occurrence: 2 events
  Vomiting Nos, frequency (percentage): 10 (20.0%) n (%)
  Vomiting Nos, occurrence: 12 events
[1]; [5]
  Incidence of Nausea, No: 30 (60.0%) n (%)
  Incidence of Nausea, Yes: 20 (40.0%) n (%)
  Incidence of Vomiting Nos, No: 40 (80.0%) n (%)
  Incidence of Vomiting Nos, Yes: 10 (20.0%) n (%)
[1]; Severity = Mild, ITT subjects
  Dizziness (Exc Vertigo), frequency (subjects): 12
  Dizziness (Exc Vertigo), occurrence (events): 16
  Dizziness (Exc Vertigo), percentage of subjects: 24.0%
  Gastrointestinal Disorders, frequency (subjects): 6
  Gastrointestinal Disorders, occurrence (events): 15
  Gastrointestinal Disorders, percentage of subjects: 12.0%
  Headache Nos, frequency (subjects): 17
  Headache Nos, occurrence (events): 26
  Headache Nos, percentage of subjects: 34.0%
  Nausea, frequency (subjects): 9
  Nausea, occurrence (events): 14
  Nausea, percentage of subjects: 18.0%
  Nervous System Disorders, frequency (subjects): 23
  Nervous System Disorders, occurrence (events): 66
  Nervous System Disorders, percentage of subjects: 46.0%
  Number of Events: 84
  Number of subjects with adverse events: 15
  Percentage of subjects with adverse events: 30.0%
  Pruritus Nos, frequency (subjects): 2
  Pruritus Nos, occurrence (events): 2
  Pruritus Nos, percentage of subjects: 4.0%
  Sedation, frequency (subjects): 21
  Sedation, occurrence (events): 24
  Sedation, percentage of subjects: 42.0%
  Skin & Subcutaneous Tissue Disorders, frequency (subjects): 2
  Skin & Subcutaneous Tissue Disorders, occurrence (events): 2
  Skin & Subcutaneous Tissue Disorders, percentage of subjects: 4.0%
  Vomiting Nos, frequency (subjects): 3
  Vomiting Nos, occurrence (events): 4
  Vomiting Nos, percentage of subjects: 6.0%
[1]; [6]
  Dizziness (Exc Vertigo), frequency (subjects): 3
  Dizziness (Exc Vertigo), occurrence (events): 3
  Dizziness (Exc Vertigo), percentage of subjects: 6.0%
  Gastrointestinal Disorders, frequency (subjects): 12
  Gastrointestinal Disorders, occurrence (events): 23
  Gastrointestinal Disorders, percentage of subjects: 24.0%
  Headache Nos, frequency (subjects): 10
  Headache Nos, occurrence (events): 11
  Headache Nos, percentage of subjects: 20.0%
  Nausea, frequency (subjects): 10
  Nausea, occurrence (events): 13
  Nausea, percentage of subjects: 20.0%
  Nervous System Disorders, frequency (subjects): 16
  Nervous System Disorders, occurrence (events): 22
  Nervous System Disorders, percentage of subjects: 32.0%
  Number of Events: 47
  Number of subjects with adverse events: 22
  Percentage of subjects with adverse events: 44.0%
  Sedation, frequency (subjects): 7
  Sedation, occurrence (events): 8
  Sedation, percentage of subjects: 14.0%
  Vomiting Nos, frequency (subjects): 9
  Vomiting Nos, occurrence (events): 10
  Vomiting Nos, percentage of subjects: 18.0%
[2]
  affinity for α2-adrenoreceptors: does not have affinity
[3]
  Global Evaluation, Observer Evaluation: Excellent: 2 (4.0%) n (%)
  Global Evaluation, Observer Evaluation: Fair: 13 (26.0%) n (%)
  Global Evaluation, Observer Evaluation: Good: 5 (10.0%) n (%)
  Global Evaluation, Observer Evaluation: Poor: 25 (50.0%) n (%)
  Global Evaluation, Observer Evaluation: Very Good: 5 (10.0%) n (%)
  Global Evaluation, Subject Evaluation: Excellent: 1 (2.0%) n (%)
  Global Evaluation, Subject Evaluation: Fair: 13 (26.0%) n (%)
  Global Evaluation, Subject Evaluation: Good: 4 (8.0%) n (%)
  Global Evaluation, Subject Evaluation: Poor: 26 (52.0%) n (%)
  Global Evaluation, Subject Evaluation: Very Good: 6 (12.0%) n (%)
[4]; Kaplan-Meier
  Time to Onset of Meaningful Pain Relief, Median: 3.85 h
[4]; within 8 hours
  Number of Subjects with Meaningful Pain Relief: 17 subjects

— patent US6765010B2, “Compositions and methods for enhancing analgesic potency of tramadol and attenuating its adverse side effects” (Pain Therapeutics, Inc., priority 1999, dated 2004)
